“Also recorded” adds a separate entry of the source.
How the values were obtained:
[1] = human, in vivo
[2] = test system: anxiolytic activity; conditions: cited from earlier work
[3] = test system: diazepam-naive subjects; conditions: previous studies; cited from earlier work
[4] = test system: diazepam-withdrawn animals; conditions: cited from earlier work
[5] = test system: rat; conditions: systemic administration of 1-PP; cited from earlier work
[6] = human, in vivo; cited from earlier work
[7] = in vivo, cited from earlier work
[8] = six subject pharmacokinetic study: buspirone and 1-PP blood levels following seven days of drug administration
[9] = test system: patients undergoing diazepam-withdrawal; conditions: human, in vivo; cited from earlier work
[10] = test system: antidepressant effect; conditions: co-administered with an antidepressant drug regimen such as fluoxetine; cited from earlier work
[11] = test system: anxiety disorders and depression; conditions: U.S. Pat. No. 3,717,634; cited from earlier work
[12] = clinical; conditions: human, in vivo, po
[13] = test system: cytochrome P4503A4; conditions: cited from earlier work
[14] = test system: cytochrome P4503A3/4; conditions: J. Clin. Psychiatry, 57:7, July 1996; cited from earlier work
[15] = J. Clin. Psychiatry, 57:7, July 1996; cited from earlier work

c1cnc(N2CCNCC2)nc1 [1-PP, 1-(2-pyrimidinyl)-piperazine]
intra- and inter-patient variations in blood levels [1]: reduced
anxiolytic activity ([2]; certain tests / earlier animal testing): (weak) antianxiety activity; also recorded: weak anxiolytic activity
antagonism of the anxiolytic and/or antidepressant action of buspirone ([2]; other tests): antagonizes the desired anxiolytic and/or antidepressant action of buspirone
effect on social interaction [3]: not shown any effect
effect in social interaction paradigms [4]: anxiogenic effect
antagonism of intracerebral buspirone activity [5]: could be blocked
association of high 1-PP levels with undesired or adverse events [6]: associated with the occurrence of undesired or adverse events
plasma levels of 1-PP [7]: much higher plasma levels

O=C1CC2(CCCC2)CC(=O)N1CCCCN1CCN(c2ncccn2)CC1 [Buspirone, 8-[4-[4-(2-pyrimidinyl)1-piperazinyl]butyl]-8-azaspiro(4,5)-decane,7,9-dione]
disappearance of buspirone ([8]; concurrent administration of nefazodone): delayed
intra- and inter-patient variations in blood levels [1]: reduced
treatment of patients undergoing diazepam-withdrawal [9]: failed to adequately treat
augmentation of an antidepressant effect [10]: effective
effectiveness for the treatment of anxiety disorders and depression [11]: effective
absorption ([7]; po): rapidly absorbed
AUC(0-t) at […] [12]: 29.4 ± 9.9 ng·h/mL
Cmax at […] [12]: 8 ± 3.3 ng/mL
Tmax at […] [12]: 1 h
half-life at […] ([12]; T1/2 of buspirone): 2.6 ± 1.8 h

CCc1nn(CCCN2CCN(c3cccc(Cl)c3)CC2)c(=O)n1CCOc1ccccc1 [Nefazodone]
inhibition of buspirone metabolism ([8]; in the presence of nefazodone, preliminary study data): marked inhibition of buspirone metabolism
inhibition of cytochrome P4503A4 [13]: an inhibitor
inhibition of cytochrome P4503A3/4 [14]: inhibition
effect on concentration and toxicity of alprazolam and triazolam [15]: increasing the concentration and toxicity of alprazolam and triazolam

— patent US6008222A (Bristol-Myers Squibb Company, priority 1997, dated 1999)
